One assay concerns the target T1, WT-HMBS (Homo sapiens, UniProt P08397).
T1 construct: Full-length HMBS was cloned into pET-28a(+)-TEV vector and transformed into BL21 (DE3) cells for expression; 6xHis (N, cleaved yes); TEV protease cleavage site (N, cleaved yes); made in house; host or cells: E. coli BL21 (DE3)
T1 sequence (P08397 1-361): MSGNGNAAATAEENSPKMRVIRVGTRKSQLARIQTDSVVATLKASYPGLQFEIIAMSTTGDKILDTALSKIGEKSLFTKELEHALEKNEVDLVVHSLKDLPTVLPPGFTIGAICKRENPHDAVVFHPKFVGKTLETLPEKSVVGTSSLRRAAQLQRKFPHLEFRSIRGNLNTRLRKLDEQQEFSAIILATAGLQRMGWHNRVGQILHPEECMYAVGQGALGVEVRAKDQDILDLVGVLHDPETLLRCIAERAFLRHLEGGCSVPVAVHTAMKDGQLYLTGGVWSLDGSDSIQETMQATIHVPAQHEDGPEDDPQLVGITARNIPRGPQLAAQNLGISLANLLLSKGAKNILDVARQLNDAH
In words: Enzymatic activity assay of recombinant HMBS, standard conditions. It counts as biochemical. To be noted: 100 μM PBG at 37° C., 84 μM compound, 2% DMSO; relative to DMSO control. The procedure:
The standard enzymatic activity of recombinant WT-HMBS was assayed at 37° C. as reported previously (Bustad et al., Bioscience reports, 2013; 33(4)). Compounds were added at a concentration of 84 μM. Absorbance of uroporphyrinogen I was determined at 405 nm. The enzyme activity in the presence of the compounds was normalized relative to DMSO-control (relative activity).
An enzymatic assay was performed to investigate the effect of compound BG-1 on the activity and conformational stability of HMBS. HMBS activity of the purified enzyme was measured in the absence and presence of compound BG-1 (at 84 μM) at standard conditions (37° C.) but also after pre-incubation at 70° C. for 20 min based on the high thermal stability of WT-HMBS.

The target of another assay is T2, HMBS (Homo sapiens, UniProt P08397).
T2 sequence (P08397 1-361): T1 sequence (P08397 1-361)
In words: Octet RED96 binding (S0.5). On the set-up: Full-length HMBS was cloned into pET-28a(+)-TEV vector and transformed into BL21 (DE3) cells for expression; 6xHis (N, cleaved yes); TEV protease cleavage site (N, cleaved yes); made in house; host or cells: E. coli BL21 (DE3). To be noted: sigmoidal binding isotherm, SSA biosensors, biotinylated HMBS; read-out: S0.5 (concentration for half-maximal binding), Octet. On the procedure:
The enzyme used in the binding assays using the Octet RED96 was expressed using a new construct with an N-terminal 6×HIS affinity tag and a TEV protease cleavage site. Full-length HMBS was cloned into pET-28a(+)-TEV vector and transformed into BL21 (DE3) cells for expression. Expression was done in Terrific Broth medium with IPTG induction. Cells were cultured 16 h at 20° C. with 220 rpm shaking. After harvesting, the cells were lysed with sonication, and standard affinity purification was performed using Ni-NTA affinity matrix. Protein was eluted with 20 mM HEPES, 150 mM NaCl (gel filtration buffer), pH 8 supplemented with 400 mM imidazole. […]
Octet RED96 system (ForteBio Biologics by Molecular Devices, LLC., San Jose, Calif.) with super streptavidin (SSA) biosensors was used as an additional method for determining the Kd-value for the binding of the compounds. […] Triplicates for the concentration series of the compounds were measured, and double reference subtraction was applied for data analysis based on the steady-state kinetics with equilibrium binding signal (Req) using ForteBio Data analysis 9.0. […]
The binding of compounds BG-1 and BG-2 to HMBS was analyzed by surface plasmon resonance (SPR) and response units from concentration-dependent steady state measurements were analyzed assuming a 1:1 binding model. […]
A general note: Biolayer interferometry detects binding as a change in optical thickness at a sensor tip.

Consider `O=Cc1cc(Cc2ccccc2Cl)cc([N+](=O)[O-])c1O` [BG-1], for which, at WT-HMBS, the “Relative activity, standard” value is 0.98 ± 0.06. Besides, the Kd at HMBS turned out to be 83 ± 7 µM.
